Source: publication PMC3916804, “The development and validation of an LC-MS/MS method for the determination of a new anti-malarial compound (TK900D) in human whole blood and its application to pharmacokinetic studies in mice” (Malaria Journal, 2014)
Like-named read-outs stand apart in the source and are kept apart here.

Experiments:
[1] = system: P. falciparum CQ-sensitive (3D7) strain; design: method as in PMID 24900630; settings: read-out: in vitro antiplasmodial activity IC50; cited from earlier work
[2] = system: P. falciparum CQ-resistant (W2) strain; design: method as in PMID 24900630; settings: read-out: in vitro antiplasmodial activity IC50; cited from earlier work
[3] = system: P. falciparum CQ-resistant (K1) strain; design: method as in PMID 24900630; settings: read-out: in vitro antiplasmodial activity IC50; cited from earlier work
[4] = long-term stability in human whole blood; type: in vitro ADME; settings: for Long term stability, % Bias from nominal: human whole blood, ~ -80°C, 181 days, n = 6
Experimental: For the determination of long-term stability in human whole blood, TK900D spiked quality control samples at 800.0 ng/ml and 10.01 ng/ml were stored at ~ -80°C for 181 days (long enough to cover the time period elapsed from the first day of sample collection to the final sample analysis). These samples were thawed on the day of testing and run together with freshly prepared calibration standards and quality controls and the values were calculated from the resulting calibration curve obtained from the calibration standards.

[5] = short-term (on-bench) stability in blood; type: in vitro ADME, human; settings: for On bench stability, % Bias from nominal: blood, room temperature on bench, n = 6
Experimental: […] The samples were assayed in one of the validation batches. The measured concentrations were compared with the nominal concentrations of these samples.

[6] = stock solution stability in methanol; type: physicochemical; settings: for stock solution stability in methanol, % Reference (peak area vs fresh): 100.0 μg/ml in methanol, eight days, n = 6; for stability in methanol (in words): at room temperature, 5°C, and -20°C
Experimental: The stability of TK900D and TK900E in methanol was evaluated at room temperature, ~ 5°C and ~ -20°C. Stock solutions with concentrations of 100.0 μg/ml of TK900D and the internal standard were prepared in methanol. Three aliquots of each of the stock solutions were kept at room temperature, ~ 5 °C, and ~ –20°C, respectively, for eight days. After diluting the stored stock solutions in injection solvent to a 100.0 ng/ml, the stability of TK900D and that of the internal standard were assessed by comparing the peak areas obtained from the stored stock solutions with peak areas of the freshly prepared stock solutions. For stock solution results to be acceptable the percentage reference value should not exceed 15%.

[7] = freeze and thaw stability in blood; type: in vitro ADME, human; settings: for Freeze and thaw stability, % Bias from nominal: blood, three freeze-thaw cycles from ~ -80°C, n = 6
Experimental: Quality control blood samples at high and low concentration, 800.0 and 10.01 ng/ml respectively, of TK900D stored frozen at ~ -80°C were allowed to thaw completely unassisted at room temperature and then refrozen for 12 to 24 hours. After three such freeze-thaw cycles the samples were assayed in the third validation run and the measured concentrations were compared with the nominal concentrations of these samples.

[8] = pharmacokinetic evaluation in mice (oral and IV), blood levels by LC-MS/MS; type: in vivo, C57/BL6 mice; settings: for Blood CL total / Vd / Vss / AUC 0 - ∞ / Apparent t 1/2 / T max / Bioavailability / Cmax: male C57/BL6 mice; for AUC 0 - ∞ / Apparent t 1/2 / Cmax: blood; for Apparent t 1/2: mean of 5; for half-life: male, C57/BL6, mouse, whole blood, mice, read-out: apparent half-life, range
Experimental: Snapshot pharmacokinetic evaluations were performed on a number of analogues from the TK-series anti-malarial compounds. […] The test compound dissolved in a 20 mM Sodium acetate buffer (pH 4.0): Ethanol: PEG400 (70:5:25; v/v/) drug vehicle was administered orally to healthy C57/BL6 mice (n = 5) at doses of 40 and 20 mg/kg, and intravenously at doses of 5 and 2.5 mg/kg. Blood samples were collected at predetermined sampling times (except for the first sampling time, i.e. 5 minutes after dosing for the IV group and 10 minutes for the oral group, the sampling times were 0.5,1, 3, 5, 7, 12 and 24 h after dosing) by bleeding the tip of the tail, and analysed using a validated LC-MS/MS assay. Back-calculated concentrations of the blood samples were obtained from a standard regression curve with nine concentration levels (3.910 to 1000 ng/ml). Concentration vs. time profiles were constructed and the data analysed with Summit PK software to obtain the pharmacokinetic parameters.

CHO mammalian cell line = system: CHO mammalian cell line; design: method as in PMID 24900630; settings: MTT assay, read-out: cytotoxicity IC50; cited from earlier work
[9] = on-instrument stability (OIS) of extracted samples; type: physicochemical; settings: for OIS (on-instrument stability), % Bias: extracted samples on instrument, n = 6; for on-instrument stability (in words): ~ 8.2 h on-instrument
Experimental: In order to assess the stability of the analytes while awaiting injection on instrument, on-instrument stability (OIS) was assessed for the period of time that the extracted samples were expected to stay on-instrument during the batch run-time (~ 9 h). Quality control samples at high and low concentrations (800.0 ng/ml and 10.01 ng/ml, respectively), were extracted in replicates of six and injected at the beginning and end of the run (i.e. six QC-high and six QC-low at the beginning of the run and another set of six QC-high and QC-low at the end of the run bracketed with quality control samples). The mean measured concentration of the OIS-samples (injected at the end of the run) and OIS-reference samples (injected at the beginning of the run) were compared: in order to be acceptable, their percentage difference should be within ± 15%.

[10] = other: oral and intravenous, over all oral and IV dose groups
[11] = as summarised in abstract (matches oral 40 and 20 mg/kg groups)

CCN(CC)CCCC(C)Nc1ccnc2cc(Cl)ccc12 (stereo not drawn) [CQ, Chloroquine, reference compound]
IC50 [1]: 0.2 nM
IC50 [2]: 59.1 nM
IC50 [3]: 36 nM

CC(C)(C)n1nnnc1C(NCCNc1ccnc2cc(Cl)ccc12)c1ccc(Cl)c(Cl)c1 (stereo not drawn) [TK900D]
IC50 [1]: 0.4 nM
IC50 [2]: 30.5 nM
stability in human whole blood (in words) ([4]; 181 days stored at -80°C): stable
Long term stability, % Bias from nominal ([4]; High (800.0 ng/ml)): 0.7%
Long term stability, % Bias from nominal ([4]; Low (10.01 ng/ml)): -4.0%
On bench stability, % Bias from nominal ([5]; High (800.0 ng/ml)): 8.3%
On bench stability, % Bias from nominal ([5]; Low (10.01 ng/ml)): 5.2%
on-bench stability (in words) ([5]; ~ 12 h on-bench at room temperature): stable
stock solution stability in methanol, % Reference (peak area vs fresh) ([6]; room temperature): 106.9%
stock solution stability in methanol, % Reference (peak area vs fresh) ([6]; ~ 5°C): 105.2%
stock solution stability in methanol, % Reference (peak area vs fresh) ([6]; ~ -20°C): 100.3%
stability in methanol (in words) [6]: stable
freeze-thaw stability (in words) ([7]; at least three freeze-thaw cycles): stable
Freeze and thaw stability, % Bias from nominal ([7]; High (800.0 ng/ml)): 6.6%
Freeze and thaw stability, % Bias from nominal ([7]; Low (10.01 ng/ml)): 8.6%
Blood CL total ([8]; IV 2.5 mg/kg): 48.9 mL/min/kg
Vd ([8]; IV 2.5 mg/kg): 7.9 L/kg
Vss ([8]; IV 2.5 mg/kg): 8.7 L/kg
AUC 0 - ∞ ([8]; IV 2.5 mg/kg): 104 µmol·min/L
Apparent t 1/2 ([8]; IV 2.5 mg/kg): 1.9 h
Blood CL total ([8]; IV 5.0 mg/kg): 44.8 mL/min/kg
Vd ([8]; IV 5.0 mg/kg): 8.9 L/kg
Vss ([8]; IV 5.0 mg/kg): 9.1 L/kg
AUC 0 - ∞ ([8]; IV 5.0 mg/kg): 222 µmol·min/L
Apparent t 1/2 ([8]; IV 5.0 mg/kg): 2.3 h
T max ([8]; oral 20 mg/kg): 1.4 h
Bioavailability ([8]; oral 20 mg/kg vs IV 2.5 mg/kg): 30.8%
AUC 0 - ∞ ([8]; oral 20 mg/kg): 256 µmol·min/L
Cmax ([8]; oral 20 mg/kg): 540 nM
Apparent t 1/2 ([8]; oral 20 mg/kg): 6.0 h
T max ([8]; oral 40 mg/kg): 1.4 h
Bioavailability ([8]; oral 40 mg/kg vs IV 5 mg/kg): 16.2%
AUC 0 - ∞ ([8]; oral 40 mg/kg): 287 µmol·min/L
Cmax ([8]; oral 40 mg/kg): 790 nM
Apparent t 1/2 ([8]; oral 40 mg/kg): 3.9 h
half-life [8, 10]: 120 to 360 min
half-life [8, 11]: 240 to 360 min
IC50 (CHO mammalian cell line): 10.5 µM
IC50 [3]: 8.2 nM
OIS (on-instrument stability), % Bias ([9]; High (800.0 ng/ml)): 0.9%
OIS (on-instrument stability), % Bias ([9]; Low (10.01 ng/ml)): 4.5%
on-instrument stability (in words) [9]: stable

CC(C)(C)n1nnnc1C(NCCNc1ccnc2cc(Cl)ccc12)c1ccc(Cl)cc1 (stereo not drawn) [TK900E]
IC50 [1]: 2 nM
IC50 [2]: 25.5 nM
stock solution stability in methanol, % Reference (peak area vs fresh) ([6]; room temperature): 102.8%
stock solution stability in methanol, % Reference (peak area vs fresh) ([6]; ~ 5°C): 103.5%
stock solution stability in methanol, % Reference (peak area vs fresh) ([6]; ~ -20°C): 98.2%
stability in methanol (in words) [6]: stable
Blood CL total ([8]; IV 2.5 mg/kg): 51.2 mL/min/kg
Vd ([8]; IV 2.5 mg/kg): 7.0 L/kg
Vss ([8]; IV 2.5 mg/kg): 6.5 L/kg
AUC 0 - ∞ ([8]; IV 2.5 mg/kg): 107 µmol·min/L
Apparent t 1/2 ([8]; IV 2.5 mg/kg): 1.6 h
Blood CL total ([8]; IV 5.0 mg/kg): 51.0 mL/min/kg
Vd ([8]; IV 5.0 mg/kg): 10.3 L/kg
Vss ([8]; IV 5.0 mg/kg): 12.6 L/kg
AUC 0 - ∞ ([8]; IV 5.0 mg/kg): 221 µmol·min/L
Apparent t 1/2 ([8]; IV 5.0 mg/kg): 2.5 h
T max ([8]; oral 20 mg/kg): 0.8 h
Bioavailability ([8]; oral 20 mg/kg vs IV 2.5 mg/kg): 25.9%
AUC 0 - ∞ ([8]; oral 20 mg/kg): 222 µmol·min/L
Cmax ([8]; oral 20 mg/kg): 940 nM
Apparent t 1/2 ([8]; oral 20 mg/kg): 3.6 h
T max ([8]; oral 40 mg/kg): 1.0 h
Bioavailability ([8]; oral 40 mg/kg vs IV 5 mg/kg): 30.6%
AUC 0 - ∞ ([8]; oral 40 mg/kg): 541 µmol·min/L
Cmax ([8]; oral 40 mg/kg): 2810 nM
Apparent t 1/2 ([8]; oral 40 mg/kg): 4.0 h
half-life [8, 10]: 96 to 240 min
half-life [8, 11]: 216 to 240 min
IC50 [3]: 1 nM
on-instrument stability (in words) [9]: stable
